Tests used:
medaka ARβ (mArβ) [1] = molecular target: T1, medaka ARβ (mArβ) (Oryzias latipes, UniProt D1MV73); experiment: Medaka ARβ reporter gene assay, antagonist assay; format: cell-based, Japanese medaka (Oryzias latipes); settings: 11‐KT spiked at 50 nM (D); MAC = 1.0 × 10^−4 M
T1 sequence (D1MV73 1-744): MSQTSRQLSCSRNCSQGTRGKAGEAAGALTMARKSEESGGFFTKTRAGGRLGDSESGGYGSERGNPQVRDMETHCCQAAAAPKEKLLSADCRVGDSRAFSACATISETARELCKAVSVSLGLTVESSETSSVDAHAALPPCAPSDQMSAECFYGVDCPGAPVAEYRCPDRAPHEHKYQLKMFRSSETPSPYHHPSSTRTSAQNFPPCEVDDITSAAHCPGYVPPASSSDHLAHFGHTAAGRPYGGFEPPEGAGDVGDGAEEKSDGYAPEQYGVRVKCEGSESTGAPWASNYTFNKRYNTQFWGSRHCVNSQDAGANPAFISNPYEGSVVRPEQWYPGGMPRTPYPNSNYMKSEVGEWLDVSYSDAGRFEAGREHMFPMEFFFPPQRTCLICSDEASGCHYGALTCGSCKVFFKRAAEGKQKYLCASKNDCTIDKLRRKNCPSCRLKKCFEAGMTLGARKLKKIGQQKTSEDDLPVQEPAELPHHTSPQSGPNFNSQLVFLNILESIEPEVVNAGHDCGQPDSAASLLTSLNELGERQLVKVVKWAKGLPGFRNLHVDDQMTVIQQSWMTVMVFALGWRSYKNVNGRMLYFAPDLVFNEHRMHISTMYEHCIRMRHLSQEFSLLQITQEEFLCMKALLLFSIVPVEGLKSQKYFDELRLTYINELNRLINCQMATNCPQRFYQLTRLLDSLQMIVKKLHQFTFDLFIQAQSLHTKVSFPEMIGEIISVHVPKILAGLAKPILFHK

[2] = tested on: Japanese medaka (Oryzias latipes); experiment: Fish Short‐Term Reproduction Assay; format: in vivo; settings: for GSI Female / GSI Male / HSI Female / HSI Male / Length Female / Length Male / Weight Female / Weight Male: completion of exposure
medaka Esr1 (mEsr1) [3] = molecular target: T2, medaka Esr1 (mEsr1) (Oryzias latipes, UniProt P50241); experiment: cell-based; parameters: species or system Japanese medaka (Oryzias latipes)
T2 sequence (P50241 1-620): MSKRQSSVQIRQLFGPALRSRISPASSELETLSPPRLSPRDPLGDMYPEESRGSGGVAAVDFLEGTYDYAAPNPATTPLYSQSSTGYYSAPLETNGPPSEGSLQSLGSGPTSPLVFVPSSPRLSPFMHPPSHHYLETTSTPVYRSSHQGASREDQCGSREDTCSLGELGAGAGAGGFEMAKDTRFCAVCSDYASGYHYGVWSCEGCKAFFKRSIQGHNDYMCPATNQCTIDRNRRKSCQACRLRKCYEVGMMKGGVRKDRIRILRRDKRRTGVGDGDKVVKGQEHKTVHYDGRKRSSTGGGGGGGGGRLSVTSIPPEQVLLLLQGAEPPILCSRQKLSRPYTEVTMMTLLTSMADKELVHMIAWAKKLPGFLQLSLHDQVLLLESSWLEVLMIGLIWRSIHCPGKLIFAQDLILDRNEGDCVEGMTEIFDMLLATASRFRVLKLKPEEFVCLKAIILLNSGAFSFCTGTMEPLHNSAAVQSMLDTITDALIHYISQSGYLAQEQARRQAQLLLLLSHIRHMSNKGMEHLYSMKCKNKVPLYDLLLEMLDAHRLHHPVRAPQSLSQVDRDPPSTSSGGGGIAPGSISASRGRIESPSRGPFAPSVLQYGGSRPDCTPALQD

medaka ARβ (mArβ) [4] = molecular target: T1, medaka ARβ (mArβ); experiment: Medaka ARβ reporter gene assay, agonist assay; format: cell-based, Japanese medaka (Oryzias latipes); settings: MAC = 1.0 × 10^−4 M
medaka Esr1 (mEsr1) [5] = molecular target: T2, medaka Esr1 (mEsr1); experiment: Medaka Esr1 reporter gene assay, antagonist assay; format: cell-based, Japanese medaka (Oryzias latipes); settings: E2 spiked at 1.0 nM (B); MAC = 1.0 × 10^−4 M
[6] = 9.75 mg/L measured, 21 d, sig. ↓ vs control
[7] = measured concentration 0.357 mg/L
[8] = measured concentration 1.90 mg/L
[9] = measured concentration 9.75 mg/L

COC(=O)c1ccc(O)cc1 [MPB, 4‐Hydroxybenzoate methyl]
Antagonistic activity (medaka ARβ (mArβ) [1]): NE (MAC = 1.0 × 10^−4 M)^(D) | Fertility rate ([2]; 0.357 mg/L measured, 21 d): 93 ± 2.9% | Hepatic VTG, female ([2]; 0.357 mg/L measured, 21 d): 3,450 ± 724 ng/mg‐liver | Hepatic VTG, male ([2]; 0.357 mg/L measured, 21 d): 1.7 ± 1.2 ng/mg‐liver | Mortality ([2]; 0.357 mg/L measured, 21 d): 0.0% | Mortality, number of dead fish ([2]; 0.357 mg/L measured, 21 d): 0 | Number of fertilized eggs (per female per day) ([2]; 0.357 mg/L measured, 21 d): 27 ± 3.5 | Number of total eggs (per female per day) ([2]; 0.357 mg/L measured, 21 d): 29 ± 3.3 | SSC female (joint plates with papillary processes) ([2]; 0.357 mg/L measured, 21 d): 0 ± 0 | Fertility rate ([2]; 1.90 mg/L measured, 21 d): 88 ± 7.7% | Hepatic VTG, female ([2]; 1.90 mg/L measured, 21 d): 3,890 ± 992 ng/mg‐liver | Mortality ([2]; 1.90 mg/L measured, 21 d): 0.0% | Mortality, number of dead fish ([2]; 1.90 mg/L measured, 21 d): 0 | Number of fertilized eggs (per female per day) ([2]; 1.90 mg/L measured, 21 d): 24 ± 3.0 | Number of total eggs (per female per day) ([2]; 1.90 mg/L measured, 21 d): 28 ± 3.3 | SSC female (joint plates with papillary processes) ([2]; 1.90 mg/L measured, 21 d): 0 ± 0 | SSC male (joint plates with papillary processes) ([2]; 1.90 mg/L measured, 21 d): 99 ± 12 | Hepatic VTG, male ([2]; 1.90 mg/L measured, 21 d, sig. ↑ vs control): 153 ± 113 ng/mg‐liver | Hepatic VTG, female ([2]; 9.75 mg/L measured, 21 d): 3,930 ± 963 ng/mg‐liver | Mortality ([2]; 9.75 mg/L measured, 21 d): 13% | Mortality, number of dead fish ([2]; 9.75 mg/L measured, 21 d): 3 | SSC female (joint plates with papillary processes) ([2]; 9.75 mg/L measured, 21 d): 0 ± 0 | SSC male (joint plates with papillary processes) ([2]; 9.75 mg/L measured, 21 d): 93 ± 15 | Hepatic VTG, male ([2]; 9.75 mg/L measured, 21 d, sig. ↑ vs control): 2,640 ± 1720 ng/mg‐liver | Fertility rate [2, 6]: 78 ± 4.8% | Number of fertilized eggs (per female per day) [2, 6]: 16 ± 2.3 | Number of total eggs (per female per day) [2, 6]: 20 ± 2.2 | Fecundity, number of total eggs (in words) ([2]; 21 d): statistically significant decrease | LOEC, elevated hepatic VTG in males ([2]; 21 d): 1.90 mg/L | Daily fecundity on the first day ([2]; Figure 3C): less than 10 eggs/female | LOECREPRO ([2]; LOEC on reproduction (fecundity and/or fertility)): 9,750 μg/L | minimal effective concentration ([2]; Oryzias latipes, 504 h, read-out: LOECmVTG): 1.9 µg/mL | LOECREPRO (reduction in fecundity or fertility) ([2]; concentrations without overt toxicity): 9,750 μg/L | LOECTOX ([2]; lowest observed effect concentration on mortality): ND (>9,750) μg/L | GSI Female [2, 7]: 11.0 ± 1.2% | GSI Male [2, 7]: 0.74 ± 0.18% | HSI Female [2, 7]: 4.4 ± 0.44% | HSI Male [2, 7]: 2.1 ± 0.16% | Length Female [2, 7]: 37.0 ± 1.3 mm | Length Male [2, 7]: 36.0 ± 0.5 mm | Weight Female [2, 7]: 589 ± 39 mg | Weight Male [2, 7]: 514 ± 28 mg | GSI Female [2, 8]: 11.0 ± 0.9% | GSI Male [2, 8]: 0.81 ± 0.06% | HSI Female [2, 8]: 4.7 ± 0.59% | HSI Male [2, 8]: 2.4 ± 0.21% | Length Female [2, 8]: 36.2 ± 1.2 mm | Length Male [2, 8]: 36.4 ± 1.3 mm | Weight Female [2, 8]: 574 ± 27 mg | Weight Male [2, 8]: 530 ± 47 mg | GSI Female [2, 9]: 9.8 ± 0.9% | GSI Male [2, 9]: 0.69 ± 0.15% | HSI Female [2, 9]: 5.4 ± 0.38% | HSI Male [2, 9]: 2.3 ± 0.60% | Length Female [2, 9]: 36.6 ± 1.4 mm | Length Male [2, 9]: 36.2 ± 1.1 mm | Weight Female [2, 9]: 603 ± 47 mg | Weight Male [2, 9]: 504 ± 62 mg | EC50 (medaka Esr1 (mEsr1) [3]): 70 µM | In vitro positive: Esr (medaka Esr1 (mEsr1) [3]; mode of action in which EC50 or PC10 was obtained in RGA): Esr | Agonistic activity (medaka ARβ (mArβ) [4]): NE (MAC = 1.0 × 10^−4 M) | Antagonistic activity (medaka Esr1 (mEsr1) [5]): NE (MAC = 1.0 × 10^−4 M)^(B)

Reference: publication PMC9297976 (Journal of Applied Toxicology, 2021)
